Test results as given in ChEMBL document CHEMBL4000231, “Natural potential neuroinflammatory inhibitors from Alhagi sparsifolia Shap” (Bioorg Med Chem Lett, 2017).

How the values were obtained:
[1] = system: N9; assay: Antineuroinflammatory activity in mouse N9 cells assessed as inhibition of LPS-induced nitric oxide production after 24 hrs by Griess assay; type: functional, cell-based
[2] = system: N9; assay: Cytotoxicity against LPS-induced mouse N9 cells assessed as decrease in cell viability at 1 to 100 ug/ml after 24 hrs by MTT assay; type: cell-based; conditions: n9, 24 h

SMILES	inhibition [1]	Activity [2]
COc1ccc(CO)cc1O	Dose-dependent effect	Non-Toxic
COc1cc(OC)cc([C@@H]2OC[C@H]3[C@@H]2CO[C@H]3c2ccc(O)c(OC)c2)c1	Dose-dependent effect	Non-Toxic
CC1=CC(C)(C)[C@@H](C)C1	Dose-dependent effect	Non-Toxic
C=Cc1ccc(O)cc1OC	Dose-dependent effect	Non-Toxic
C[C@@H]1O[C@@H](OC[C@H]2O[C@@H](Oc3c(-c4ccc(O)c(O)c4)oc4cc(O)cc(O)c4c3=O)[C@H](O[C@@H]3O[C@@H](C)[C@H](O)[C@@H](O)[C@H]3O)[C@@H](O)[C@@H]2O)[C@H](O)[C@H](O)[C@H]1O	Dose-dependent effect	Non-Toxic
COc1ccc(-c2coc3c(OC)c(O)ccc3c2=O)cc1O	Dose-dependent effect	Non-Toxic
O=C(N[C@@H](Cc1ccccc1)C(=O)N[C@H](CO)Cc1ccccc1)c1ccccc1	Dose-dependent effect	Non-Toxic
CC1=CC(=O)CC(C)(C)[C@@]1(O)/C=C/C(C)=C\C(=O)O [(+)-ABSCISIC ACID]	Dose-dependent effect	Non-Toxic
COc1cc([C@@H]2OC[C@@H]3[C@H]2CO[C@H]3c2ccc(O)c(OC)c2)ccc1O [(+)-PINORESINOL]	Dose-dependent effect	Non-Toxic
COc1cc([C@@H]2OC[C@@H]3[C@H]2CO[C@H]3c2cc(OC)c(O[C@@H]3O[C@H](CO)[C@@H](O)[C@H](O)[C@H]3O)c(OC)c2)cc(OC)c1O [ACANTHOSIDE B]	Dose-dependent effect	Non-Toxic
CC1=CC(=O)CC(C)(C)[C@@]1(O)/C=C/[C@@H](C)O [BLUMENOL A]	Dose-dependent effect	Non-Toxic
COc1ccc(-c2coc3cc(O)ccc3c2=O)cc1O [CALYCOSIN]	Dose-dependent effect	Non-Toxic
O=c1c(O[C@@H]2O[C@H](CO)[C@@H](O)[C@H](O)[C@H]2O)c(-c2ccc(O)c(O)c2)oc2cc(O)cc(O)c12 [ISOQUERCETIN]	Dose-dependent effect	Non-Toxic
COc1cc(-c2oc3cc(O)cc(O)c3c(=O)c2O)ccc1O [ISORHAMNETIN]	Dose-dependent effect	Non-Toxic
COc1ccc(-c2coc3cc(O)c(OC)cc3c2=O)cc1O [ODORATIN]	Dose-dependent effect	Non-Toxic
O=c1c(O)c(-c2ccc(O)c(O)c2)oc2cc(O)cc(O)c12 [QUERCETIN]	Dose-dependent effect	Non-Toxic
COc1cc([C@H]2OC[C@H]3[C@@H]2CO[C@@H]3c2cc(OC)c(O)c(OC)c2)cc(OC)c1O [SYRINGARESINOL]	Dose-dependent effect	Non-Toxic
